Active and inactive are the calls of the source. The rule behind the calls is not given here.
How the values were obtained:
Staphylococcus aureus [1] = test: Antibacterial activity against methicillin-resistant Staphylococcus aureus N315 by CLSI based micro-broth dilution method; type: functional
Staphylococcus aureus [2] = test: Antibacterial activity against methicillin-resistant Staphylococcus aureus clinical isolate M16 by CLSI based micro-broth dilution method; type: functional
Staphylococcus aureus [3] = test: Bactericidal activity against methicillin-resistant Staphylococcus aureus clinical isolate M12 at 8 times MIC incubated upto 8 hrs by time-kill assay; type: functional, organism-based
Staphylococcus aureus [4] = test: Bactericidal activity against methicillin-resistant Staphylococcus aureus clinical isolate M12 assessed as inhibition of bacterial growth at 4 times MIC incubated upto 8 hrs by time-kill assay; type: functional, organism-based
Staphylococcus aureus [5] = test: Induction of morphological changes in methicillin-resistant Staphylococcus aureus clinical isolate M12 assessed as rupture of bacterial bodies at 8 times MIC incubated for 4 hrs by SEM analysis; type: functional, organism-based
Staphylococcus aureus [6] = test: Induction of morphological changes in methicillin-resistant Staphylococcus aureus clinical isolate M12 assessed as torn cell membrane at 8 times MIC incubated for 4 hrs by SEM analysis; type: functional, organism-based
Staphylococcus aureus [7] = test: Disruption of cell membrane in methicillin-resistant Staphylococcus aureus clinical isolate M12 assessed as increase in DNA leakage incubated for 4 hrs by […]; type: functional, organism-based; details: dose <= 16.0 µg/ml
[8] = Toxicity in KM mouse assessed as mental abnormality at 5 to 80 mg/kg, sc; type: organism-based; details: in vivo, dose 5-80 mg/kg
[9] = Toxicity in KM mouse assessed as skin abnormality at <20 mg/kg, sc; type: organism-based; details: in vivo
[10] = Toxicity in KM mouse assessed as adverse effect at 20 mg/kg, sc; type: organism-based; details: in vivo
[11] = Toxicity in KM mouse assessed as intact structure in skin layers at 20 mg/kg, sc measured after 24 hrs by H and E staining based analysis; type: organism-based; details: in vivo
[12] = Toxicity in KM mouse assessed as necrosis in lung epithelial cells at 20 mg/kg, sc measured after 24 hrs by H and E staining based analysis; type: organism-based; details: in vivo
[13] = Toxicity in KM mouse assessed as inflammatory cell infiltration in lung epithelial cells at 20 mg/kg, sc measured after 24 hrs by H and E staining based analysis; type: organism-based; details: in vivo
[14] = Toxicity in KM mouse assessed as necrosis in renal tubular epithelial cells at 20 mg/kg, sc measured after 24 hrs by H and E staining based analysis; type: organism-based; details: in vivo
[15] = Toxicity in BALB/c mouse assessed as animal death at 40 mg/kg, ip bid for 7 days; type: organism-based; details: in vivo, 168 h, time 7 day
[16] = Toxicity in BALB/c mouse assessed as knotted hair at 40 mg/kg, ip bid for 7 days; type: organism-based; details: in vivo, 168 h, time 7 day
[17] = Toxicity in BALB/c mouse assessed as change in mental status at <15 mg/kg, ip bid for 7 days; type: organism-based; details: in vivo, 168 h, time 7 day
[18] = Toxicity in BALB/c mouse assessed as necrosis in hepatocytes at 15 mg/kg, ip bid for 7 days; type: organism-based; details: in vivo, 168 h, time 7 day
[19] = Toxicity in BALB/c mouse assessed as degeneration of renal tubular epithelial cells at 15 mg/kg, ip bid for 7 days; type: organism-based; details: in vivo, 168 h, time 7 day
[20] = Toxicity in BALB/c mouse assessed as edema in renal tubular epithelial cells at 15 mg/kg, ip bid for 7 days; type: organism-based; details: in vivo, 168 h, time 7 day
Staphylococcus aureus [21] = test: Antibacterial activity against methicillin-resistant Staphylococcus aureus clinical isolate M12 infected in KM mouse assessed as decrease in pus formation in subcutaneous area at 10 mg/kg, sc measured after 24 hrs; type: functional, organism-based
Staphylococcus aureus [22] = test: Bactericidal activity against methicillin-resistant Staphylococcus aureus clinical isolate M12 infected in KM mouse assessed as decrease in inflammatory cells in epidermis at 10 mg/kg, sc measured after 24 hrs; type: functional, organism-based
Staphylococcus aureus [23] = test: Antibacterial activity against methicillin-resistant Staphylococcus aureus clinical isolate M12 infected in KM mouse assessed as decrease in bacterial load in skin tissues at 5 mg/kg, sc measured after 24 hrs by drop-plate counting method (reference value: 6.7); type: functional
Staphylococcus aureus [24] = test: Antibacterial activity against methicillin-resistant Staphylococcus aureus clinical isolate M12 infected in KM mouse assessed as reduction in IL-6 level at infection site at 5 mg/kg, sc measured after 24 hrs by ELISA; type: functional
[25] = Toxicity in KM mouse infected with methicillin-resistant Staphylococcus aureus clinical isolate M12 assessed as histopathological abnormality in heart at 5 to 10 mg/kg, sc measured after 24 hrs by H and E staining based analysis; type: organism-based; details: in vivo, dose 5-10 mg/kg
[26] = Toxicity in KM mouse infected with methicillin-resistant Staphylococcus aureus clinical isolate M12 assessed as histopathological abnormality in lung at 5 to 10 mg/kg, sc measured after 24 hrs by H and E staining based analysis; type: organism-based; details: in vivo, dose 5-10 mg/kg
[27] = Toxicity in KM mouse infected with methicillin-resistant Staphylococcus aureus clinical isolate M12 assessed as histopathological abnormality in spleen at 5 to 10 mg/kg, sc measured after 24 hrs by H and E staining based analysis; type: organism-based; details: in vivo, dose 5-10 mg/kg
[28] = Toxicity in KM mouse infected with methicillin-resistant Staphylococcus aureus clinical isolate M12 assessed as damage in liver at 5 to 10 mg/kg, sc measured after 24 hrs by H and E staining based analysis; type: organism-based; details: in vivo, dose 5-10 mg/kg
Staphylococcus aureus [29] = test: Antibacterial activity against methicillin-resistant Staphylococcus aureus clinical isolate M12 infected in sepsis BALB/c mouse model assessed as decrease in bacterial load in liver at 12 mg/kg, ip administered consecutively at 12 hr-interval for 24 hrs measured after 24 hrs post-last dose; type: functional; details: time 48 hrs

## C=CCc1cc(-c2ccc(OCCC[N+](C)(C)CC(=O)NCCCC)c(CC=C)c2)c2oc(=S)n(Cc3ccc(F)cc3)c2c1.[Br-]
Staphylococcus aureus [1]
  MIC: 4 µg/mL
Staphylococcus aureus [2]
  MIC: 2 µg/mL
Staphylococcus aureus [3]
  Activity: Active
Staphylococcus aureus [4]
  Activity: Active
Staphylococcus aureus [5]
  Activity: Active
Staphylococcus aureus [6]
  Activity: Active
Staphylococcus aureus [7]
  Activity: Dose-Dependent Effect
[8]
  Activity: Non-Toxic
[9]
  Activity: Non-Toxic
[10]
  Activity: Non-Toxic
[11]
  Activity: Non-Toxic
[12]
  Activity: Non-Toxic
[13]
  Activity: Non-Toxic
[14]
  Activity: Non-Toxic
[15]
  Activity: Toxic
[16]
  Activity: Toxic
[17]
  Activity: Non-Toxic
[18]
  Activity: Non-Toxic
[19]
  Activity: Non-Toxic
[20]
  Activity: Non-Toxic
Staphylococcus aureus [21]
  Activity: Active
Staphylococcus aureus [22]
  Activity: Active
Staphylococcus aureus [23]
  Activity: 1.4 log10CFU/g
Staphylococcus aureus [24]
  Activity: 65.6 pg/mL
[25]
  Activity: Non-Toxic
[26]
  Activity: Non-Toxic
[27]
  Activity: Non-Toxic
[28]
  Activity: Non-Toxic
Staphylococcus aureus [29]
  Activity: 1.62 log10CFU/g

Source: ChEMBL document CHEMBL6127052, “Discovery of membrane-targeting amphiphilic honokiol derivatives containing an oxazolethione moiety to combat methicillin-resistant Staphylococcus aureus (MRSA) infections” (Eur J Med Chem, 2024)
